The target of assay [1] is Sodium-dependent serotonin transporter (Homo sapiens, UniProt P31645, G498C). Put plainly: Decrease in [3H]5-HT uptake at human SERT G498C mutant transfected in HEK293 cells. The format is cell-based.
The target in assay [2] is Sodium-dependent serotonin transporter (Homo sapiens, UniProt P31645, C109A). Briefly: Inhibition of [3H]5-HT uptake at human SERT C109A mutant transfected in HEK cells. The format is cell-based, HEK293.
In assay [3] the test system is Sodium-dependent serotonin transporter (Homo sapiens), P31645 [C109A]. Put plainly: Activation of inward current at human SERT C109A mutant expressed in Xenopus laevis oocytes. The format is cell-based. The note with it: Oocyte.
Assay [4] has the same test system. Put plainly: Blockade of leak current of human SERT C109A mutant expressed in Xenopus laevis oocytes assessed as outward current at 30 uM. The format is cell-based. The note with it: Oocyte.

Experimental findings from ChEMBL document CHEMBL1144518, “1-Methylpyridinium-4-(4-phenylmethanethiosulfonate) iodide, MTS-MPP+, a novel scanning cysteine accessibility method (SCAM) reagent for monoamine transporter studies” (Bioorg Med Chem, 2007) are described below.

The structures appear in SMILES notation. The source made the active and inactive calls. The rule behind the calls is not given here.

For orientation: EC50 means the midpoint of the concentration-response curve. A word on the Ki: it is the dissociation constant of the complex between target and ligand, obtained from inhibition or displacement.

In assay [1], `C[N+](C)(C)CCSS(C)(=O)=O` showed an EC50 of 3.16 µM.
`C[n+]1ccc(-c2ccc(SS(C)(=O)=O)cc2)cc1` had a half-maximal effective concentration (EC50) in assay [1] of 3.98 µM. In addition, in assay [2], the Ki was 1300 µM. In addition, the result in assay [3] was inactive. Moreover, the result in assay [4] was Active.
In turn, `C[n+]1ccc(-c2ccccc2)cc1` had an inhibition constant (Ki) in assay [2] of 48 µM. This counts as double-digit micromolar.
